Here are results for 29 molecules from patent US8343934B2, “Diverse lead compound autotaxin inhibitors” (University of Memphis, priority 2009, dated 2013).

Structures are written as SMILES.

The IC50 is the concentration that gives 50% inhibition.

This assay concerns the target T1, ATX (Homo sapiens, UniProt Q13822).
T1 construct: conditioned serum-free medium (CCM) from MDA-MB-435 cells as the source of ATX; endogenous in cells; host or cells: MDA-MB-435 cells (about 10x concentrated conditioned serum-free medium)
The assay can be described thus: ATX inhibition assay (FS-3 substrate). It is filed as biochemical. Particulars: for % Response: preliminary screen, FS-3 hydrolysis at one hour, normalized to vehicle control, mean±S.D., same values given at 10 μM in Table 5; for IC50 / % ATX Acitivity (10 μM): FS-3 substrate; for % ATX Acitivity (10 μM): 10 μM compound. Here is the method: ATX inhibition was assayed using the substrate FS-3 (Echelon Biosciences, Inc., Salt Lake City, Utah, USA). The FS-3 assay used ˜10 times concentrated conditioned serum-free medium (CCM) from MDA-MB-435 cells as the source of ATX, while CCM comprised one-third of the total volume. The final volume for FS-3 was comprised of the substrate at varying concentrations and 30 μM charcoal-stripped fatty acid free BSA (Sigma Aldrich) in assay buffer (1 mM each CaCl2 and MgCl2, 5 mM KCl, 140 mM NaCl, 50 mM Tris pH 8.0).
All assays were performed in 96-well plates with data read at 1 minute intervals by a Synergy2 system (BioTek, Winooski, Vt.). The fluorescence produced upon the hydrolysis of FS-3 was monitored using an excitation wavelength of 485 nm and an emission wavelength of 528 nm at 37° C. (Ferguson et al., 2006). […] All readings were normalized to vehicle control after subtraction of fluorescence in the absence of CCM. Data are shown as the mean±S.D. of at least three wells.

Where [1] appears, read: Calculated IC50 data for the 30 active compounds.

On to `CC1=NN(c2ccc(/C=C/c3ccc(NC(=O)Nc4ccc(/C=C/c5ccc(N6N=C(C)C(N=Nc7ccccc7C(=O)O)C6=O)cc5S(=O)(=O)O)c(S(=O)(=O)O)c4)cc3S(=O)(=O)O)c(S(=O)(=O)O)c2)C(=O)C1N=Nc1ccccc1C(=O)O.[Na+]` (stereo not drawn) [compound 34937], for which the “% Response” value turned out to be 87 ± 3.1%.

In the case of `Nc1c(S(=O)(=O)[O-])cc2cc(S(=O)(=O)[O-])ccc2c1N=Nc1ccc(-c2ccc(N=Nc3c(N)c(S(=O)(=O)[O-])cc4cc(S(=O)(=O)[O-])ccc34)c(S(=O)(=O)[O-])c2)cc1.[Na+].[Na+].[Na+].[Na+].[Na+]` [compound 11243], the “% Response” value is listed as 49 ± 6.1%. Also, the IC50 under setting [1] was 12.6 µM. For `CCCCCCCCCCCCCCCCOc1ccc(S(=O)(=O)N/N=c2/sc3ccc(S(=O)(=O)O)cc3n2C)cc1C(=O)O` [compound 270069], the “% Response” value was found to be 97 ± 2.4%.

With `Nc1ccc(C(=O)Nc2ccc(C(=O)Nc3ccc4c(O)cc(S(=O)(=O)O)cc4c3)cc2)cc1` [compound 1741], the “% Response” value is given as 60 ± 4.6%.

`O=C(Nc1ccc2cc(S(=O)(=O)O)cc(O)c2c1)Nc1ccc2cc(S(=O)(=O)O)cc(O)c2c1` [compound 37204]: the “% Response” value stood at 106 ± 60.5%. For the molecule `Cc1cc(N)ccc1N=Nc1ccc(Sc2ccc(N=Nc3c(S(=O)(=O)O)cc4cc(S(=O)(=O)O)c(N=Nc5ccc([N+](=O)[O-])cc5)c(N)c4c3O)cc2)cc1.[Na+]` [compound 65571], the “% Response” value was found to be 74 ± 5.5%. For `Cc1ccccc1N=Nc1ccc(N=Nc2c(S(=O)(=O)O)cc3cc(S(=O)(=O)O)c(N=Nc4ccc([N+](=O)[O-])cc4)c(N)c3c2O)c(C)c1.[Na+]` [compound 65836], the “% Response” value came to 71 ± 4.6%. Regarding `Cc1ccccc1N=Nc1c(S(=O)(=O)[O-])cc2cc(NC(=O)Nc3ccc4c(O)c(N=Nc5ccc6cc(S(=O)(=O)[O-])ccc6c5)c(S(=O)(=O)[O-])cc4c3)ccc2c1O.[Na+].[Na+].[Na+]` [compound 58057], the “% Response” value was 29 ± 3.6%. Besides, the IC50 under setting [1] is 11.6 µM.

For `O=C(Nc1ccc(C(=O)Nc2ccc3c(O)cc(S(=O)(=O)O)cc3c2)cc1)c1ccccc1.[Na+]` [compound 37215], the “% Response” value is 79 ± 3.7%. Same read-out and setting: the value for `O=C(Nc1ccc(Sc2ccc(N=Nc3c(O)c(S(=O)(=O)O)cc4cc(S(=O)(=O)O)ccc34)cc2)cc1)c1ccc(N=Nc2c(O)c(S(=O)(=O)O)cc3cc(S(=O)(=O)O)ccc23)cc1` [compound 65860] was 66 ± 4.4%. For `Cc1cc(C(O)(c2ccc(Nc3ccccc3)cc2)c2ccc(Nc3ccc(S(=O)(=O)O)cc3)cc2)ccc1N` (stereo not drawn) [NSC 5014], the “% ATX Acitivity (10 μM)” value was determined as 39 ± 4.3%. Moreover, the IC50 (Table 5) is 1.27 µM. As to `O=C(Nc1ccc2c(O)c(N=Nc3ccccc3)c(S(=O)(=O)O)cc2c1)Nc1ccc2c(O)c(N=Nc3ccc4cc(S(=O)(=O)O)ccc4c3)c(S(=O)(=O)O)cc2c1.[H-].[Na+]` [compound 65573], the “% Response” value was found to be 39 ± 3.8%. Besides, under setting [1], the IC50 is 19.1 µM. For the molecule `O=C(Nc1ccc(S(=O)(=O)c2ccc(NC(=O)Nc3ccc4cc(S(=O)(=O)O)ccc4c3)cc2)cc1)Nc1ccc2cc(S(=O)(=O)O)ccc2c1.[Na+]` [compound 12149], the “% Response” value came to 57 ± 6.5%. Still for that read-out and setting: the figure for `CCOc1cc(-c2ccc(N=Nc3c(S(=O)(=O)O)cc4ccc(N)cc4c3O)cc2)ccc1N=Nc1c(S(=O)(=O)O)cc2ccc(N)cc2c1O.[Na+]` [compound 44654] is 61 ± 4.3%. In the case of `Cc1cc(C(O)(c2ccc(Nc3ccccc3)cc2)c2ccc(Nc3ccc(S(=O)(=O)O)cc3)cc2)ccc1N.[Na+]` (stereo not drawn) [compound 5014], the “% Response” value stood at 39 ± 4.3%. For the same molecule, under setting [1], the IC50 is 1.27 µM. On the same counts, the results for `COc1cc(N=Nc2c(S(=O)(=O)O)cc3cc(NC(=O)Nc4ccc5c(O)c(N=Nc6ccc7cc(S(=O)(=O)O)ccc7c6)c(S(=O)(=O)O)cc5c4)ccc3c2O)c(C)cc1N` [compound 58058] are 30 ± 4.9% and 13.8 µM. With `O=C(Nc1cccc(C(=O)Nc2ccc3cc(S(=O)(=O)O)cc(S(=O)(=O)O)c3c2)c1)Nc1cccc(C(=O)Nc2ccc3cc(S(=O)(=O)O)cc(S(=O)(=O)O)c3c2)c1.[Na+]` [compound 12856], the “% Response” value amounted to 71 ± 5.4%.

Turning to `Nc1cccc(N=Nc2c(S(=O)(=O)[O-])cc3cc(Nc4ccc5c(O)c(N=Nc6cccc(N)c6)c(S(=O)(=O)[O-])cc5c4)ccc3c2O)c1.[Na+].[Na+]` [compound 58055], the “% Response” value worked out at 89 ± 3.9%. For the molecule `Nc1ccc2cc(S(=O)(=O)O)cc(O)c2c1N=Nc1ccc(-c2ccc(N=Nc3c(S(=O)(=O)O)cc4cc(S(=O)(=O)O)c(N=Nc5ccc([N+](=O)[O-])cc5)c(N)c4c3O)cc2)cc1` [compound 65855], the “% Response” value amounted to 43 ± 3.8%. Also, the IC50 under setting [1] is 17.4 µM.

With `Nc1c(N=Nc2ccc([N+](=O)[O-])cc2)c(S(=O)(=O)O)cc2cc(S(=O)(=O)O)c(N=Nc3ccc([N+](=O)[O-])cc3)c(O)c12.[Na+]` [compound 65544], the “% Response” value amounted to 76 ± 5.1%. In the case of `Nc1ccc(N=Nc2ccc(-c3ccc(N=Nc4c(S(=O)(=O)[O-])cc5cc(S(=O)(=O)[O-])c(N=Nc6cccc([N+](=O)[O-])c6)c(N)c5c4O)cc3)cc2)c2cc(S(=O)(=O)[O-])ccc12.[Na+].[Na+].[Na+]` [compound 79742], the “% Response” value is 36 ± 2.5%. Under setting [1], the IC50 is 7.04 µM.

Take `Nc1ccc(N=Nc2ccc(-c3ccc(N=Nc4c(S(=O)(=O)[O-])cc5cc(S(=O)(=O)[O-])c(N=Nc6ccc([N+](=O)[O-])cc6)c(N)c5c4O)cc3)cc2)c2cc(S(=O)(=O)[O-])ccc12.[Na+].[Na+].[Na+]` [compound 79743]: the “% Response” value stood at 39 ± 2.7%. Moreover, the IC50 under setting [1] was 8.33 µM. Take `Nc1c(N=Nc2ccc([N+](=O)[O-])cc2)c(S(=O)(=O)O)cc2cc(S(=O)(=O)O)c(N=Nc3ccc(-c4ccc(N=Nc5ccc(O)cc5)cc4)cc3)c(O)c12.[Na+]` [compound 47752]: the “% Response” value was determined as 52 ± 5.4%. For the molecule `CC(=O)NS(=O)(=O)c1ccc(NC(=O)c2ccccc2C(=O)O)cc1` [compound 4368], the “% Response” value worked out at 99 ± 2.8%. For the molecule `CN(C)C1C(=O)C(C(=O)NCNc2cccc(C(=O)O)c2C(=O)O)=C(O)C2(O)C(=O)C3=C(O)c4c(O)cccc4[C@](C)(O)[C@@H]3C[C@H]12` (stereo partly drawn) [compound 43891], the “% Response” value was 32 ± 9.1%. Further, under setting [1], the IC50 is 13.9 µM. Regarding `Nc1ccc(N=Nc2ccc(-c3ccc(N=Nc4c(S(=O)(=O)O)cc5cc(S(=O)(=O)O)c(N=Nc6ccc([N+](=O)[O-])cc6)c(N)c5c4O)cc3)cc2)c(N)c1.[Na+]` [compound 65848], the “% Response” value turned out to be 48 ± 4.8%. Further, the IC50 under setting [1] is 15.2 µM. Regarding `CC(=O)Nc1ccc(C=Cc2ccc(NC(=O)Nc3ccc(C=Cc4ccc(NC(C)=O)cc4S(=O)(=O)O)c(S(=O)(=O)O)c3)cc2S(=O)(=O)O)c(S(=O)(=O)O)c1` [compound 34928], the “% Response” value stood at 51 ± 6.5%. `O=C1C(Cl)=C(Nc2ccc(C(=O)Nc3ccc4cc(S(=O)(=O)O)cc(S(=O)(=O)O)c4c3)cc2)C(=O)C(Cl)=C1Nc1ccc(C(=O)Nc2ccc3cc(S(=O)(=O)O)cc(S(=O)(=O)O)c3c2)cc1` [NSC 12859]: the “% ATX Acitivity (10 μM)” value is listed as 27 ± 2.8%. For the same molecule, where the note is “Table 5”, the IC50 worked out at 0.805 µM.

In the case of `CC(C)(C)OC(=O)NC(CC(Cc1ccccc1)C(=O)O)C(=O)NC(CC(Cc1ccccc1)C(=O)O)C(=O)NC(CC(Cc1ccccc1)C(=O)O)C(=O)NCC(=O)Oc1ccc([N+](=O)[O-])cc1` (stereo not drawn) [NSC 341348], the “% ATX Acitivity (10 μM)” value came to 43 ± 2.8% and the IC50 was found to be 2.5 µM.
